Measured values as given in US11008301B2, “Piperidinone formyl peptide 2 receptor agonists” (BRISTOL-MYERS SQUIBB COMPANY, priority 2017, dated 2021).
Read-outs that look alike come from different tables or passages of the source.

Legend:
[1] = biological target: human FPR2 (Homo sapiens (Human), UniProt P25090); assay: FPR2 cyclic adenosine monophosphate (cAMP) assay; format: cell-based; conditions: CHO cells overexpressing human FPR2
Protocol: (§1) FPR2 and FPR1 Cyclic Adenosine Monophosphate (cAMP) Assays. A mixture of forskolin (5 μM final for FPR2 or 10 μM final for FPR1) and IBMX (200 μM final) were added to 384-well Proxiplates (Perkin-Elmer) pre-dotted with test compounds in DMSO (1% final) at final concentrations in the range of 1.7 nM to 100 μM. Chinese Hamster Ovary cells (CHO) overexpressing human FPR1 or human FPR2 receptors were cultured in F-12 (Ham's) medium supplemented with 10% qualified FBS, 250 μg/ml zeocin and 300 μg/ml hygromycin (Life Technologies). Reactions were initiated by adding 2,000 human FPR2 cells per well or 4,000 human FPR1 cells per well in Dulbecco's PBS (with calcium and magnesium) (Life Technologies) supplemented with 0.1% BSA (Perkin-Elmer). The reaction mixtures were incubated for 30 min at room temperature. The level of intracellular cAMP was determined using the HTRF HiRange cAMP assay reagent kit (Cisbio) according to manufacturer's instruction. Solutions of cryptate conjugated anti-cAMP and d2 flurorophore-labelled cAMP were made in a supplied lysis buffer separately. Upon completion of the reaction, the cells were lysed with equal volume of the d2-cAMP solution and anti-cAMP solution. After a 1-h room temperature incubation, time-resolved fluorescence intensity was measured using the Envision (Perkin-Elmer) at 400 nm excitation and dual emission at 590 nm and 665 nm. A calibration curve was constructed with an external cAMP standard at concentrations ranging from 1 μM to 0.1 pM by plotting the fluorescent intensity ratio from 665 nm emission to the intensity from the 590 nm emission against cAMP concentrations. The potency and activity of a compound to inhibit cAMP production was then determined by fitting to a 4-parametric logistic equation from a plot of cAMP level versus compound concentrations.

[2] = biological target: human FPR1 (Homo sapiens (Human), UniProt P21462); assay: FPR1 cyclic adenosine monophosphate (cAMP) assay; format: cell-based; conditions: CHO cells overexpressing human FPR1; forskolin 10 μM; inhibition of cAMP production; read-out: hFPR1 cAMP EC50
Protocol: as §1

[3] = cAMP assay, read-out: hFPR2 agonist activity EC50 (hFPR2 Assay)
[4] = forskolin 5 μM, inhibition of cAMP production, read-out: hFPR2 cAMP2 EC50

human FPR2, sequence (P25090 whole entry): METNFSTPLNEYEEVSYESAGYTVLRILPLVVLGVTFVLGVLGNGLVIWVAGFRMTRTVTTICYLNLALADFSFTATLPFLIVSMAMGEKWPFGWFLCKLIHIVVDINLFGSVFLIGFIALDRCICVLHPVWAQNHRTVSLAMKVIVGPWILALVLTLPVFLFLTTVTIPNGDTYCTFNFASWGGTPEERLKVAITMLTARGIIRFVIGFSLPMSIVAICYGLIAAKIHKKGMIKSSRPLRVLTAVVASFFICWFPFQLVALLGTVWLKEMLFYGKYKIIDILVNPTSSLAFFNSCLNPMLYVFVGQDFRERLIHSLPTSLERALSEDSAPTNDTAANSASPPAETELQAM
human FPR1, sequence (P21462 whole entry): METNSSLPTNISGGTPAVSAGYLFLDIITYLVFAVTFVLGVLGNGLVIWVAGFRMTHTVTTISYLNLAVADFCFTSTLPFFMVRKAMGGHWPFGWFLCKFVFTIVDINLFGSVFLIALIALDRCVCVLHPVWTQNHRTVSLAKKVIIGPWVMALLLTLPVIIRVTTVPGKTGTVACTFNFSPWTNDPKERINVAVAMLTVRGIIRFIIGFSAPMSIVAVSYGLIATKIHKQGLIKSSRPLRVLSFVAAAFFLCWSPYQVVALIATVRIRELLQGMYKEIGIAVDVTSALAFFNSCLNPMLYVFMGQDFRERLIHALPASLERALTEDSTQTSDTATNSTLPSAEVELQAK

Row | EC50 [1, 3] [nM] | EC50 [1, 4] [nM] | EC50 [2] [nM] | Compound
1 | 10 to 100 | 28 | 410 | O=C(Nc1ccc(C(F)(F)F)cc1)N[C@@H]1CCCN(c2ccc(N3CCCCC3=O)cc2)C1=O [Example 4]
2 | 100 to 1000 | 540 | 1500 | O=C(Nc1ccc(C(F)(F)F)cc1)N[C@H]1CCCN(c2ccc(N3CC4(COC4)C3)cc2)C1=O [Example 9]
3 | 100 to 1000 | 380 | 5000 | O=C(Nc1ccc(C(F)(F)F)cn1)N[C@@H]1CCCN(c2ccc(N3CC4(COC4)C3)cc2)C1=O [Example 12]
4 | – | 2.1 | 36 | COCC1CCCCN1c1ccc(N2CCC[C@@H](NC(=O)Nc3ccc(C(F)(F)F)cc3)C2=O)cc1 (stereo partly shown) [Example 14]
5 | – | 32 | 660 | COCC1CCCCN1c1ccc(N2CCC[C@@H](NC(=O)Nc3ccc(C(F)(F)F)nc3)C2=O)cc1 (stereo partly shown) [Example 15]
6 | ≤ 10 | 3.7 | 12 | COC[C@@H]1CCCN1c1ccc(N2CCC[C@@H](NC(=O)Nc3ccc(Cl)cc3)C2=O)cc1 [Example 26]
7 | – | 400 | 2200 | CS(=O)(=O)N1CCN(c2ccc(N3CCC[C@@H](NC(=O)Nc4ccc(C(F)(F)F)cc4)C3=O)cc2)CC1 [Example 34]
8 | – | 3 | 11 | O=C(Nc1ccc(C(F)(F)F)cc1)N[C@@H]1CCCN(c2ccc(N3CCCCC3)cc2)C1=O [Example 45]
9 | – | 330 | > 10000 | O=C(Nc1ccc(C(F)(F)F)nc1)N[C@@H]1CCCN(c2ccc(N3CCCCC3=O)cc2F)C1=O [Example 50]
10 | – | 31 | 920 | O=C(Nc1ccc(C(F)(F)F)cc1)N[C@@H]1CCCN(c2ccc(N3CCOCC3)nc2)C1=O [Example 54, (R)-1-(1-(6-Morpholinopyridin-3-yl)-2-oxopiperidin-3-yl)-3-(4-(trifluoromethyl)phenyl)urea]
11 | – | 1.8 | 45 | O=C(Nc1ccc(C(F)(F)F)cc1)N[C@@H]1CCCN(c2ccc(N3CCCC(CO)C3)nc2)C1=O (stereo partly shown) [Example 56]
12 | – | 14 | 190 | CC(=O)N[C@@H]1CCN(c2ccc(N3CCC[C@@H](NC(=O)Nc4ccc(C(F)(F)F)cc4)C3=O)cc2)C1 [Example 69]
13 | – | 2.4 | 67 | O=C(Nc1ccc(C(F)(F)F)cc1)N[C@@H]1CCCN(c2ccc(N3CCCC(F)(F)C3)cc2)C1=O [Example 70]
14 | – | 0.18 | 1100 | CN(C)C1CCCN(c2ccc(N3CCC[C@@H](NC(=O)Nc4ccc(C(F)(F)F)cc4)C3=O)cc2)C1 (stereo partly shown) [Example 77]
15 | – | 0.31 | 1700 | CN(C)C1CCN(c2ccc(N3CCC[C@@H](NC(=O)Nc4ccc(Cl)cc4F)C3=O)c(F)c2)C1 (stereo partly shown) [Example 81]
16 | – | 0.39 | 1100 | CN(C)C1CCN(c2ccc(N3CCC[C@@H](NC(=O)Nc4ccc(Cl)cc4)C3=O)cc2F)C1 (stereo partly shown) [Example 83]
17 | ≤ 10 | – | – | CN(C)C(=O)C1CCN(c2ccc(N3CCC[C@@H](NC(=O)Nc4ccc(Cl)cc4F)C3=O)cc2)C1 (stereo partly shown) [Example 86]
18 | ≤ 10 | – | – | CS(=O)(=O)C1CCN(c2ccc(N3CCC[C@@H](NC(=O)Nc4ccc(Cl)cc4)C3=O)c(F)c2F)C1 (stereo partly shown) [Example 87]
19 | ≤ 10 | – | – | O=C(Nc1ccc(Cl)cc1F)N[C@@H]1CCCN(c2ccc(N3CC[C@@H](F)C3)c(F)c2F)C1=O [Example 88]

Row | EC50 [1, 3] [nM] | EC50 [1, 4] [nM] | EC50 [2] [nM] | Compound
20 | ≤ 10 | – | – | CS(=O)(=O)C1CCN(c2ccc(N3CCC[C@@H](NC(=O)Nc4ccc(Cl)cc4F)C3=O)c(F)c2F)C1 (stereo partly shown) [Example 89]
21 | ≤ 10 | – | – | CS(=O)(=O)C1CCN(c2cc(F)c(N3CCC[C@@H](NC(=O)Nc4ccc(Cl)cc4F)C3=O)c(F)c2)C1 (stereo partly shown) [Example 90]
22 | ≤ 10 | – | – | CC1(O)CCCN(c2ccc(N3CCC[C@@H](NC(=O)Nc4ccc(Cl)cc4)C3=O)cc2)C1 (stereo partly shown) [Example 93]
23 | ≤ 10 | – | – | CC1(O)CCN(c2ccc(N3CCC[C@@H](NC(=O)Nc4ccc(Cl)cc4)C3=O)cc2)C1 (stereo partly shown) [Example 94]
24 | – | 2.5 | 76 | O=C(Nc1ccc(Cl)cc1)N[C@@H]1CCCN(c2ccc(N3C[C@H]4COC[C@H]4C3)cc2)C1=O [Example 95]
25 | ≤ 10 | – | – | O=C(Nc1ccc(Cl)cc1)N[C@@H]1CCCN(c2ccc(N3CCC4(CC4)C3)cc2)C1=O [Example 96]
26 | ≤ 10 | – | – | O=C(Nc1ccc(Cl)cc1)N[C@@H]1CCCN(c2ccc(N3CCC(C4CC4)C3)cc2)C1=O (stereo partly shown) [Example 97]
27 | ≤ 10 | – | – | O=C(Nc1ccc(Cl)cc1)N[C@@H]1CCCN(c2ccc(N3C[C@@H](F)[C@@H](F)C3)cc2)C1=O [Example 98]
28 | ≤ 10 | – | – | CC1(F)CCN(c2ccc(N3CCC[C@@H](NC(=O)Nc4ccc(Cl)cc4)C3=O)cc2)CC1 [Example 99]
29 | ≤ 10 | – | – | O=C(Nc1ccc(Cl)cc1)N[C@@H]1CCCN(c2ccc(N3CCC(O)(C(F)(F)F)CC3)cc2)C1=O [Example 100]
30 | ≤ 10 | – | – | O=C(Nc1ccc(Cl)cc1)N[C@@H]1CCCN(c2ccc(N3CCC4(CCCO4)CC3)cc2)C1=O [Example 101]
31 | – | 15 | 61 | O=C(Nc1ccc(Cl)cc1)N[C@@H]1CCCN(c2ccc(N3CCC4(CCCO4)CC3)cc2)C1=O [Example 102]
32 | ≤ 10 | – | – | CN(C)C1CCN(c2ccc(N3CCC[C@@H](NC(=O)Nc4ccc(Cl)cc4)C3=O)cn2)C1 (stereo partly shown) [Example 103]
33 | – | 18 | 630 | O=C(Nc1ccc(C(F)(F)F)cc1)N[C@@H]1CCCN(c2ccc(N3C[C@H]4CC[C@@H](C3)O4)nc2)C1=O [Example 104]
34 | ≤ 10 | – | – | O=C(Nc1ccc(Cl)cc1F)N[C@@H]1CCCN(c2ccc(N3CC[C@@H](F)C3)nc2)C1=O [Example 105]
35 | ≤ 10 | – | – | O=C(Nc1ccc(Cl)cc1F)N[C@@H]1CCCN(c2ccc(N3CC[C@@H](O)C3)nc2)C1=O [Example 106]
36 | – | 2.6 | 330 | O=C(Nc1ccc(Cl)cc1)N[C@@H]1CCCN(c2ccc(N3C[C@H]4CC[C@@H](C3)O4)cc2F)C1=O [Example 107]
37 | ≤ 10 | – | – | CS(=O)(=O)C1CCN(c2ccc(N3CCC[C@@H](NC(=O)Nc4ccc(C(F)(F)F)cc4)C3=O)cc2)C1 (stereo partly shown) [Example 108]
